According to a melting point compilation (Tetko et al.; mined from patent text by program, amines drawn as free bases though some values may be those of a salt):

melting point | Compound
78 to 79.3 °C | Nc1ccc(Oc2ccc(Cl)c(Cl)c2)nc1
211 °C | NS(=O)(=O)c1cccc(-c2cc(-c3nc(-c4ccc(C(F)(F)F)c(OCC(F)(F)F)c4)cc(C(F)(F)F)n3)ccn2)c1
152 to 155 °C | CCOC(=O)C1=C(NC(=O)Nc2ccc([N+](=O)[O-])c(C(=O)OCC)c2)CCC1
117 to 121 °C | Nc1cccc(-c2cccc(-c3ccnc4c(C(=O)c5cccs5)cnn34)c2)c1
125 to 127 °C | O=C(O)c1nc2c(NCc3ccccc3)ncnc2n1C1OC(CO)C(O)C1O (configuration not stated)
102 to 103 °C | Cc1c(-c2ccccc2)oc2c(COCCCl)cccc2c1=O
76 to 77 °C | O=C(OC1COCCC1=O)c1ccccc1 (configuration not stated)
110 to 111 °C | CN(CCOc1ccc(Cn2cc(CCC(=O)O)c(-c3ccccc3)c2)cc1)c1ccccn1
120 °C | COC(=O)c1ccc(OC)c(NC(=NCl)c2ccc(Cl)cc2Cl)c1
220 to 223 °C | CC(C)[C@H](NC(=O)OCc1ccccn1)C(=O)N[C@@H](Cc1ccccc1)[C@@H](O)[C@H](O)[C@H](Cc1ccccc1)NC(=O)[C@@H](NC(=O)OCc1ccccn1)C(C)C
110 to 111 °C | COc1cccc(OC)c1C#CC(F)(F)F
109 to 111 °C | COc1cc(I)c(C(C)=O)cc1O
108 to 110 °C | CC1CCCN1CC=CC(=O)Nc1cc2c(Nc3ccc(F)c(Cl)c3)ncnc2cc1OCC1CC1 (configuration not stated)
253 to 254 °C | O=c1[nH]c2cc(Cl)c(Cl)c(Cl)c2o1
219 to 221 °C | Cc1nc2c(N[C@@H]3c4ccccc4C[C@H]3O)cc(C(=O)N(C)C)cc2n1C (relative stereo)
208 to 209 °C | C/C(=C\c1ccc(P(=O)(O)O)cc1)c1ccc2c(c1)C(C)(C)CCC2(C)C
126 to 129 °C | COc1ccccc1N(CC1OCCO1)C(=O)c1ccc(CCl)cc1

melting point | Compound
143 to 145 °C | O=Cc1ccc(-c2nc(Oc3ccccc3)cc(Oc3ccccc3)n2)cc1
117 to 123 °C | OC(Cn1cncn1)(c1ccc(F)cc1F)C(F)n1cncn1 (configuration not stated)
238 to 240 °C | CC1Sc2c(C(=O)O)c(=O)c3cc(F)c(N4CCC(N)C4)cc3n21 (configuration not stated)
233 to 237 °C | Nc1cc(=O)nc(Nc2ccc(Cl)cc2)n1-c1ccccc1
257 to 259 °C | O=C(Nc1ccc(C(=O)N2Cc3ccccc3Cc3ccccc32)cc1)c1cc(Cl)cc(Cl)c1
115 to 117 °C | CC=CC1Nc2ccccc2-c2c([N+](=O)[O-])cnn21 (configuration not stated)
88 to 89 °C | CCCOc1ccccc1-c1nc2ccccc2c(=O)[nH]1
239 °C | O=c1[nH]c(C2CC2)nc2c1cnn2-c1ncc(C(F)(F)F)cc1Cl
140 °C | CCCCc1nc(S(=O)(=O)c2ccccc2)c(C(=O)O)n1Cc1ccc(-c2ccccc2C(=O)O)cc1
> 280 °C | CC1OC(Cc2cccc3c2C(=O)c2ccccc2C3=O)CC(N)C1O (configuration not stated)
180 to 181 °C | NS(=O)(=O)c1ccc(CC(=O)C=CC(=O)O)cc1
316 to 317 °C | O=c1c2c(Cc3ccc(O)cc3)n[nH]c2c2cccnc2n1-c1ccccc1
178 to 180 °C | COc1cc(NC(C)=O)ccc1N1CCN(CCCNc2c(C)c(=O)n(C)c(=O)n2C)CC1
100 to 101 °C | Cc1cc(CCl)nc(Nc2ccccc2)n1
259 °C | CC(C)(C)C1=NN(c2ccc(C(=O)O)cc2)C(c2ccc(O)cc2)C1 (configuration not stated)
> 250 °C | NC(=O)c1cc2c(Oc3ccc(Cl)cc3)c[nH]c(=O)c2s1

Second part, the molecule before the results:

Compound | melting point
Nc1nc2c(ncn2COC(CC(=O)OC23CC4CC(CC(C4)C2)C3)CC(=O)OC23CC4CC(CC(C4)C2)C3)c(=O)[nH]1 (configuration not stated) | 283 to 285 °C
Cc1ccc(CC(NCc2ccc(O)cc2)c2ccccc2)cc1 (configuration not stated) | 129 to 130 °C
CNS(=O)(=O)Cc1ccc2[nH]cc(CC(=O)O)c2c1 | 126 to 133 °C
Cc1cccc(C(=O)Nc2ccc3c(c2)CC(N(C)Cc2ccccn2)C3)c1-c1ccc(C(F)(F)F)cc1 (configuration not stated) | 105 to 115 °C
O=C(CNC(=O)[C@@H]1CCCN1C(=O)O)NCc1ccccc1 | 112 to 115 °C
COc1ccc(-c2ccc(OC)cc2[N+](=O)[O-])cc1 | 122 to 124 °C
ClCc1ccc(-c2nc3cccc(Cl)c3o2)cc1 | 92 to 93 °C
COc1ccc(C(=O)CCC(=O)O)cc1N | 136 to 137 °C
CNC1([C@@H]2CCN(c3c(F)cc4c(=O)c(C(=O)O)cn([C@@H]5C[C@@H]5F)c4c3C)C2)CC1 | 211 to 212 °C
CCNC1=NS(=O)(=O)c2cc(Cl)sc2N1 | 274 to 275 °C
CCCNc1nc(C#N)c(C#N)nc1CC(C)C | 107 to 110 °C
CCCc1c(C(=O)c2ccc(OS(=O)(=O)c3ccc(C)cc3)cc2)c2ccccn2c1C(C)=O | 125 to 126 °C
CCn1c(=O)n(C)c(=O)n(-c2cc(C(=O)OC)c(Cl)cc2F)c1=O | 48 to 49 °C
Cc1oc(-c2ccco2)nc1COc1ccc(CO)cc1Cl | 143 to 144 °C
CCOc1ccc(CC(CN2CC(=O)OC(=O)C2)N(CCN2CC(=O)OC(=O)C2)CC(=O)O)cc1 (configuration not stated) | 172 to 174 °C
N#CCN1CCC(Nc2nc3ccccc3n2Cc2ccnc3ccccc23)CC1 | 190 °C
CN1C(=O)C(c2ccccc2)(C2CCNCC2)N=C1N (configuration not stated) | 269 to 271 °C
COc1cc2c(cc1C(F)(F)F)N(C(=O)Nc1cccc(S(=O)(=O)Nc3cccnc3)c1)CC2 | > 215 °C
Cc1cc(CCCCCOc2c(Cl)cc(-c3nnn[nH]3)cc2Cl)on1 | 122 to 123 °C
CCOC(=O)C1=C(N)NC2=C(C(=O)CCC2)C1c1cccc(Br)c1 (configuration not stated) | 255 °C
CCOCc1nc(C(C)(C)O)c(C(=O)OCc2oc(=O)oc2C)n1Cc1ccc(-c2ccccc2-c2nnn[nH]2)cc1 | 166 to 168 °C
CC(=O)Nc1ccc2c3c(cccc13)S(=O)(=O)N2CCCCl | 205 °C

Compound | melting point
CCn1cc(C(=O)O)c(=O)cc1-c1cccc(Cl)c1 | 212 to 213 °C
COCC(=O)NCC(=O)N1CC1C#N (configuration not stated) | 70 to 72 °C
O=C(NC(CO)(CO)CO)c1cc2ccnc(Cl)c2[nH]1 | 218 to 220 °C
CC1=C(c2cccc(C(F)(F)F)c2)n2ncc3c(=O)[nH]c(=S)n(c32)C1 | 269 to 271 °C
N#CC1(N)CCOCC1 | 46 to 47 °C
CS(=O)(=O)c1ccc(C(=O)C2C(=O)N(C(N)=O)c3ccc(Cl)cc32)s1 (configuration not stated) | 212 to 214 °C
CCOC(=O)c1cccc2nc(CC)n(Cc3ccc(-c4ccccc4C(=O)C(=O)OC)cc3)c12 | 118 to 119 °C
CCOC(=O)c1cc(-c2ccc(-c3ccco3)cc2)n(-c2ccc(S(C)(=O)=O)c(F)c2)n1 | 172 °C
Cc1cccc(N=C(N)N(C)C)c1N1CCOCC1 | 100 °C
O=c1c2ccsc2ccn2ccnc12 | 267 °C
CC(C)(C)OC(=O)c1ccc(NC#N)cc1 | 94 to 95 °C
CCC1CC2C3CCC4=CC(=O)CCC4=C3CCC2(C)C1O (configuration not stated) | 124 to 126 °C
Cc1cc(F)ccc1C(=C(C=O)c1nnnn1C)c1ccc(F)cc1C | 135 to 136 °C
C=CCN1Cc2nc3c(cnn3CCCl)c(N)c2C1=O | 198 to 199 °C
CCCCCC(=O)c1c(CSc2nccn2C)nc2cc(OC)c(OC)cc2c1-c1ccc(OC)c(OC)c1 | 128 to 129 °C
NC(=O)c1ccc(-c2cnc3[nH]c(=O)n(CCC4CCOCC4)c3n2)cc1 | 233 to 236 °C
CCOC(=O)CCCCCCC(=O)Nc1ccc2c(c1)C(c1ccccc1)=N[C@@H](C)C(=O)N2C | 55 to 56 °C
CS(=O)(=O)c1ccc(-c2oc(C(c3ccccc3)c3ccccc3)nc2-c2ccc(F)cc2)cc1 | 155 to 156 °C
Cc1cccc(C(=O)N[C@@H](CC(C)C)C(=O)N[C@@H](C(C)C)[C@@H](O)c2c(-c3ccccc3)c2=O)n1 | 98 to 100 °C
O=C1CCC(CN2C(=O)C3(COc4cc5c(cc43)OCO5)c3ccccc32)N1 (configuration not stated) | 121 to 130 °C
O=C1NCCN1S(=O)(=O)N1CCCCC1 | 201 °C
NCC(O)COc1ccc(OCC(O)CN)cc1 (configuration not stated) | 128 to 132 °C

Compound | melting point
CCOc1ccc(-c2nc3n(c2-c2ccncc2)CCC3)cc1 | 133 to 135 °C
Cc1cc(C2=NOC(c3cc(C(F)(F)F)cc(C(F)(F)F)c3)(C(F)(F)F)C2)ccc1Br (configuration not stated) | 108 to 110 °C
Cc1cccc(CCC(CO)n2cnc(C(N)=O)c2)c1 (configuration not stated) | 116 to 118 °C
COC(NC(=O)c1ccccc1O)C(Cl)(Cl)Cl (configuration not stated) | 117 to 118 °C
Oc1ncnc2c(-c3ccc(Cc4ccccc4)cc3)cnn12 | 300 to 303 °C
CS(=O)(=O)C=Cc1ccccc1 | 77 to 79 °C
CCOC(=O)C1=Cc2cc(C)c(O)cc2OC1C(F)(F)F (configuration not stated) | 151 to 153 °C
O=C1Cc2c([nH]c3ccc([N+](=O)[O-])cc23)-c2cc(Br)ccc2N1 | > 330 °C
CCc1c(CC(N)=O)c2cc(OCCCC(N)=O)ccc2n1Cc1ccccc1 | 176 to 179 °C
CC(C(=O)O)c1ccc2cc(OCc3csc(-c4ccccc4)n3)ccc2c1 (configuration not stated) | 163 to 164 °C
COc1cc(O)c(C(=O)C=Cc2ccc(OCc3ccccc3)c(OC)c2)c(OC)c1 | 131 °C
Cc1cc(-c2cc(C(F)(F)F)n3ncc(-c4ccnc(CO)c4)c3n2)ccc1C(F)(F)F | 231 °C
N#Cc1cccc(-c2nc3sccn3c2-c2ccnc(N[C@@H]3CCCN(S(=O)(=O)c4ccc(Cl)cc4)C3)n2)c1 | 144 to 146 °C
CCCn1nc2c(N)nc3ccccc3c2c1CC(C)(C)NC(=O)c1ccc(F)c(F)c1 | 165 to 166 °C
CCOc1cc(C(CC#N)N2C(=O)c3cccc(N)c3C2=O)ccc1OC (configuration not stated) | 171 to 172 °C
COc1ccc2cc(I)sc2c1 | 75 to 77 °C
CC(C)(CO)Nc1nc2c(s1)CCc1cc(C#N)ccc1-2 | 121 to 123 °C
CCOP(=O)(OCC)C(C)(C)NC(=O)c1cccc([N+](=O)[O-])c1 | 95 to 96 °C
Cc1ccc(C(=O)Nc2ccc(C)c(-c3nc(N(C)C)nc4c3CNC(=O)N4c3c(F)cccc3F)c2)cc1F | 258 to 264 °C
Cc1ccc(S(=O)(=O)N(C)SN(c2cc(C(F)(F)F)ccc2Cl)c2c([N+](=O)[O-])cc([N+](=O)[O-])cc2C(F)(F)F)cc1 | 142 to 144 °C
